Reference: patent US20070287691A1, “METHOD FOR ACTIVATING THE LIPID CATABOLIC METABOLISM IN ENTERIC EPITHELIUM AND IMPROVING THE LIPID METABOLISM IN ENTERIC EPITHELIUM” (KAO CORPORATION, priority 2001, published 2007)

Tested on: rat small-intestine epithelial cell strain, IEC-6
Test: Inhibition test of triacylglycerol synthesis in the small intestine epithelium (Nile Red, FACS)
Type: cell-based
Conditions: relative value, linoleic acid = 100; 200 μM, 24 hours
Protocol: Using FCS (fetal calf serum)-free, Dulbecco's modified Eagle's medium (D-MEM) with 5% FBS and 70 μg/mL kanamycin added therein, a rat small-intestine epithelial cell strain, IEC-6, was incubated under 5% CO2 at 37° C. […] Twenty-four hours later, the individual cultures were washed with PBS and subsequent to treatment with tripsin, were peeled off from Culture dishes. Those cultures were separately suspended in portions of HBSS which contained Nile Red (100 ng/mL). Subsequent to incubation at room temperature for […], FACS analysis was conducted. From average fluorescence intensities, synthesized quantities of triacylglycerols were measured.

Row | Compound | Fluorescence intensity (synthesized quantity of triacylglycerols)
1 | CCCCC/C=C\C/C=C\C/C=C\C/C=C\CCCC(=O)O [Arachidonic acid] | 87
2 | CC/C=C\C/C=C\C/C=C\C/C=C\C/C=C\C/C=C\CCC(=O)O [Docosahexaenoic acid] | 49
3 | CC/C=C\C/C=C\C/C=C\C/C=C\C/C=C\CCCC(=O)O [Eicosapentaenoic acid] | 52
4 | CCCCC/C=C\C/C=C\CCCCCCCC(=O)O [Linoleic acid] | 100
5 | CCCCCCCC/C=C\CCCCCCCC(=O)O [Oleic acid] | 191
6 | CC/C=C\C/C=C\C/C=C\CCCCCCCC(=O)O [α-Linolenic acid] | 42
7 | CCCCC/C=C\C/C=C\C/C=C\CCCCC(=O)O [γ-Linolenic acid] | 70
